Assay results as given in patent US8946203B2, “Benzodioxane inhibitors of leukotriene production” (Boehringer Ingelheim International GmbH, priority 2012, dated 2015).

These molecules were tested against T1, human LTA4 hydrolase (Homo sapiens, UniProt P09960) (assay: LTA4H Enzyme assay (cleavage of Arg-AMC, fluorescence)). Conditions: not given.
T1 sequence (P09960 1-611): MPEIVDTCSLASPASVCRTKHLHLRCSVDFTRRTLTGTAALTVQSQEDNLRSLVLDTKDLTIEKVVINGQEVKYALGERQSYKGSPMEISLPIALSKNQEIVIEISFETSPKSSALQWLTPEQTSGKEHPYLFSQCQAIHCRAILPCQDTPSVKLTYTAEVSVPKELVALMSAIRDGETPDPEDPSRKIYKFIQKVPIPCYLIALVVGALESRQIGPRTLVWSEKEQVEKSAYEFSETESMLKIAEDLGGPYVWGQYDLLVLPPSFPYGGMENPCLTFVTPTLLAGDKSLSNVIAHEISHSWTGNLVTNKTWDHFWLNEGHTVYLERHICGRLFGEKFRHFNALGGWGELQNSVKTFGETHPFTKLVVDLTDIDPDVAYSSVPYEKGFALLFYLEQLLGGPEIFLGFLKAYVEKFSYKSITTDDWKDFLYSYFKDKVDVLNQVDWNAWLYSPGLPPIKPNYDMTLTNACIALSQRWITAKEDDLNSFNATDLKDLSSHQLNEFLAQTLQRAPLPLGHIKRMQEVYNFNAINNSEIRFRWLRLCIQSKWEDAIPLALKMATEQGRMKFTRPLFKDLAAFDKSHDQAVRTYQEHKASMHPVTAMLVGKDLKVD
Format: biochemical
Method: The compounds of the invention are assessed for the ability to interact with human LTA4 hydrolase in an enzymatic assay that measures the ability of the enzyme to cleave the peptide bond of arginyl-aminomethylcoumarin (Arg-AMC). LTA4H Enzyme (1 nM final), Arg-AMC substrate (50 μM final), and compound are combined in a reaction buffer (50 mM Tris-HCl (pH 7.5), 100 mM KCl, 0.5% bovine serum albumin) at room temperature for 1 h. The formation of product is assessed by measuring the fluorescence of aminomethylcoumarin product (excitation wavelength 380 nm/emission wavelength 460 nm).

Row | SMILES | IC50 [nM]
1 | CN(C)CCN(C)Cc1ccc([C@H]2COc3ccccc3O2)cc1 [Example 79, N-{4-[(2S)-2,3-dihydro-1,4-benzodioxin-2-yl]benzyl}-N,N′,N′-trimethylethane-1,2-diamine] | 0.51
2 | COC1CCN(Cc2ccc([C@H]3COc4ccccc4O3)cc2)CC1 [Example 98, 1-{4-[(2S)-2,3-dihydro-1,4-benzodioxin-2-yl]benzyl}-4-methoxypiperidine] | 0.61

Same assay, conditions: LTA4H Enzyme 1 nM, Arg-AMC substrate 50 μM, room temperature 1 h, fluorescence; read-out: IC50 values of LTA4H Enzyme assay

Row | SMILES | IC50 [nM]
3 | OC(C1CCN(Cc2ccc([C@H]3COc4ccccc4O3)cc2)CC1)(C(F)(F)F)C(F)(F)F [Example 22, 2-(1-{4-[(2S)-2,3-dihydro-1,4-benzodioxin-2-yl]benzyl}piperidin-4-yl)-1,1,1,3,3,3-hexafluoropropan-2-ol] | 200
4 | O=C(O)C1CN(Cc2ccc([C@H]3COc4ccccc4O3)cc2)Cc2ccccc21 (stereo partly drawn) [Example 56, 2-{4-[(2S)-2,3-dihydro-1,4-benzodioxin-2-yl]benzyl}-1,2,3,4-tetrahydroisoquinoline-4-carboxylic acid] | 6.08
5 | O=C(O)[C@@H]1CC[C@H](NCc2ccc([C@H]3COc4ccccc4O3)cc2)C1 [Example 57, (1R,3S)-3-({4-[(2S)-2,3-dihydro-1,4-benzodioxin-2-yl]benzyl}amino)cyclopentane-carboxylic acid] | 13.7
6 | CC(C)(C)C(CC(=O)O)NCc1ccc([C@H]2COc3ccccc3O2)cc1 (stereo partly drawn) [Example 58, 3-({4-[(2S)-2,3-dihydro-1,4-benzodioxin-2-yl]benzyl}amino)-4,4-dimethylpentanoic acid] | 1.36
7 | O=C(O)C1(NCc2ccc([C@H]3COc4ccccc4O3)cc2)CCCC1 [Example 59, 1-({4-[(2S)-2,3-dihydro-1,4-benzodioxin-2-yl]benzyl}amino)cyclopentane-carboxylic acid] | 89.2
8 | CN(CC(=O)O)Cc1ccc([C@H]2COc3ccccc3O2)cc1 [Example 60, N-{4-[(2S)-2,3-dihydro-1,4-benzodioxin-2-yl]benzyl}-N-methylglycine] | 31
9 | CC(=O)N1CC[C@H](NCc2ccc([C@H]3COc4ccccc4O3)cc2)C1 [Example 65, 1-[(3S)-3-({4-[(2S)-2,3-dihydro-1,4-benzodioxin-2-yl]benzyl}amino)pyrrolidin-1-yl]ethanone] | 1.15
10 | OCCC1CCN(Cc2ccc([C@H]3COc4ccccc4O3)cc2)CC1 [Example 70, 2-(1-{4-[(2S)-2,3-dihydro-1,4-benzodioxin-2-yl]benzyl}piperidin-4-yl)ethanol] | 0.57
11 | COCC(C)NCc1ccc([C@H]2COc3ccccc3O2)cc1 (stereo partly drawn) [Example 72, N-{4-[(2S)-2,3-dihydro-1,4-benzodioxin-2-yl]benzyl}-1-methoxypropan-2-amine] | 1.8
12 | CCN(C)Cc1ccc([C@H]2COc3ccccc3O2)cc1 [Example 74, N-{4-[(2S)-2,3-dihydro-1,4-benzodioxin-2-yl]benzyl}-N-methylethanamine] | 1
13 | CN(C)Cc1ccc([C@H]2COc3ccccc3O2)cc1 [Example 75, 1-{4-[(2S)-2,3-dihydro-1,4-benzodioxin-2-yl]phenyl}-N,N-dimethylmethanamine] | 4.51
14 | O[C@H]1CC[C@H](NCc2ccc([C@H]3COc4ccccc4O3)cc2)CC1 [Example 76, trans-4-({4-[(2S)-2,3-dihydro-1,4-benzodioxin-2-yl]benzyl}amino)cyclohexanol] | 1.9
15 | OCCN(Cc1ccc([C@H]2COc3ccccc3O2)cc1)C1CCCCC1 [Example 80, 2-(cyclohexyl{4-[(2S)-2,3-dihydro-1,4-benzodioxin-2-yl]benzyl}amino)ethanol] | 0.71
16 | c1ccc2c(c1)OC[C@H](c1ccc(CN3CCC[C@H]4CCCC[C@@H]43)cc1)O2 [Example 85, (4aR,8aS)-1-{4-[(2S)-2,3-dihydro-1,4-benzodioxin-2-yl]benzyl}decahydroquinoline] | 0.45
17 | NC(=O)[C@H]1CCCC[C@H]1NCc1ccc([C@H]2COc3ccccc3O2)cc1 [Example 86, (1S,2R)-2-({4-[(2S)-2,3-dihydro-1,4-benzodioxin-2-yl]benzyl}amino)cyclohexane-carboxamide] | 0.92
18 | OC[C@@H]1CCCC[C@H]1NCc1ccc([C@H]2COc3ccccc3O2)cc1 [Example 89, [(1R,2R)-2-({4-[(2S)-2,3-dihydro-1,4-benzodioxin-2-yl]benzyl}amino)cyclohexyl]methanol] | 1.4
19 | OCC1CCN(Cc2ccc([C@H]3COc4ccccc4O3)cc2)CC1 [Example 90, (1-{4-[(2S)-2,3-dihydro-1,4-benzodioxin-2-yl]benzyl}piperidin-4-yl)methanol] | 0.77
20 | O=C1CCCCN1C1CCN(Cc2ccc([C@H]3COc4ccccc4O3)cc2)CC1 [Example 94, 1′-{4-[(2S)-2,3-dihydro-1,4-benzodioxin-2-yl]benzyl}-1,4′-bipiperidin-2-one] | 0.45
21 | c1ccc2c(c1)OC[C@H](c1ccc(CN(CC3CC3)C3CCCCC3)cc1)O2 [Example 95, N-(cyclopropylmethyl)-N-{4-[(2S)-2,3-dihydro-1,4-benzodioxin-2-yl]benzyl}cyclohexanamine] | 0.49
22 | O=C(NCCO)C1CCN(Cc2ccc([C@H]3COc4ccccc4O3)cc2)CC1 [Example 96, 1-{4-[(2S)-2,3-dihydro-1,4-benzodioxin-2-yl]benzyl}-N-(2-hydroxyethyl)piperidine-4-carboxamide] | 0.22
23 | CN(C)CCN(Cc1ccc([C@H]2COc3ccccc3O2)cc1)C1CCCCC1 [Example 104, N-cyclohexyl-N-{4-[(2S)-2,3-dihydro-1,4-benzodioxin-2-yl]benzyl}-N′,N′-dimethylethane-1,2-diamine] | 0.18
24 | CC1COCCN1Cc1ccc([C@H]2COc3ccccc3O2)cc1 (stereo partly drawn) [Example 107, 4-{4-[(2S)-2,3-dihydro-1,4-benzodioxin-2-yl]benzyl}-3-methylmorpholine] | 1.35

Other lines, results leading:

Row | IC50 [nM] | SMILES
25 | 1.79 | NC(=O)[C@H]1CC[C@H](NCc2ccc([C@H]3COc4ccccc4O3)cc2)CC1 [Example 66, trans-4-({4-[(2S)-2,3-dihydro-1,4-benzodioxin-2-yl]benzyl}amino)cyclohexane-carboxamide]
26 | 1.88 | CC(C)NCc1ccc([C@H]2COc3ccccc3O2)cc1 [Example 71, N-{4-[(2S)-2,3-dihydro-1,4-benzodioxin-2-yl]benzyl}propan-2-amine]
27 | 3.65 | CCCNCc1ccc([C@H]2COc3ccccc3O2)cc1 [Example 73, N-{4-[(2S)-2,3-dihydro-1,4-benzodioxin-2-yl]benzyl}propan-1-amine]
28 | 0.18 | CC1CCCN1Cc1ccc([C@H]2COc3ccccc3O2)cc1 (stereo partly drawn) [Example 77, 1-{4-[(2S)-2,3-dihydro-1,4-benzodioxin-2-yl]benzyl}-2-methylpyrrolidine]
29 | 1.4 | OC1CCCN(Cc2ccc([C@H]3COc4ccccc4O3)cc2)C1 (stereo partly drawn) [Example 78, 1-{4-[(2S)-2,3-dihydro-1,4-benzodioxin-2-yl]benzyl}piperidin-3-ol]
30 | 0.2 | CC(=O)NC1CCN(Cc2ccc([C@H]3COc4ccccc4O3)cc2)C1 (stereo partly drawn) [Example 82, N-(1-{4-[(2S)-2,3-dihydro-1,4-benzodioxin-2-yl]benzyl}pyrrolidin-3-yl)acetamide]
31 | 0.54 | O[C@@H]1CCN(Cc2ccc([C@H]3COc4ccccc4O3)cc2)C1 [Example 88, (3R)-1-{4-[(2S)-2,3-dihydro-1,4-benzodioxin-2-yl]benzyl}pyrrolidin-3-ol]
32 | 0.54 | O[C@H]1CCN(Cc2ccc([C@H]3COc4ccccc4O3)cc2)C1 [Example 91, (3S)-1-{4-[(2S)-2,3-dihydro-1,4-benzodioxin-2-yl]benzyl}pyrrolidin-3-ol]
33 | 36 | O=C1CN(Cc2ccc([C@H]3COc4ccccc4O3)cc2)CN1 [Example 92, 1-{4-[(2S)-2,3-dihydro-1,4-benzodioxin-2-yl]benzyl}imidazolidin-4-one]
34 | 1.98 | CN(C)C1CCN(Cc2ccc([C@H]3COc4ccccc4O3)cc2)C1 (stereo partly drawn) [Example 93, 1-{4-[(2S)-2,3-dihydro-1,4-benzodioxin-2-yl]benzyl}-N,N-dimethylpyrrolidin-3-amine]
35 | 2.36 | C[C@H]1CC[C@H](NCc2ccc([C@H]3COc4ccccc4O3)cc2)CC1 [Example 100, trans-N-{4-[(2S)-2,3-dihydro-1,4-benzodioxin-2-yl]benzyl}-4-methylcyclohexanamine]
36 | 2.4 | c1ccc2c(c1)OC[C@H](c1ccc(CNC3CCCOC3)cc1)O2 (stereo partly drawn) [Example 103, N-{4-[(2S)-2,3-dihydro-1,4-benzodioxin-2-yl]benzyl}tetrahydro-2H-pyran-3-amine]
37 | 0.87 | CN1CC(NCc2ccc([C@H]3COc4ccccc4O3)cc2)CCC1=O (stereo partly drawn) [Example 108, 5-({4-[(2S)-2,3-dihydro-1,4-benzodioxin-2-yl]benzyl}amino)-1-methylpiperidin-2-one]
